Tests used:
MERTK = target: T1, MERTK (Homo sapiens, UniProt Q12866); test: TR-FRET kinase activity assay, MERTK; format: biochemical; conditions: for IC50: TR-FRET activity assay, ATP at Km, 60 minutes, read-out: Mer IC50; for FLT3/Mer ratio (FLT3 IC50/Mer IC50): ratio calculated as FLT3 IC50/Mer IC50
T1 sequence (Q12866 21-999): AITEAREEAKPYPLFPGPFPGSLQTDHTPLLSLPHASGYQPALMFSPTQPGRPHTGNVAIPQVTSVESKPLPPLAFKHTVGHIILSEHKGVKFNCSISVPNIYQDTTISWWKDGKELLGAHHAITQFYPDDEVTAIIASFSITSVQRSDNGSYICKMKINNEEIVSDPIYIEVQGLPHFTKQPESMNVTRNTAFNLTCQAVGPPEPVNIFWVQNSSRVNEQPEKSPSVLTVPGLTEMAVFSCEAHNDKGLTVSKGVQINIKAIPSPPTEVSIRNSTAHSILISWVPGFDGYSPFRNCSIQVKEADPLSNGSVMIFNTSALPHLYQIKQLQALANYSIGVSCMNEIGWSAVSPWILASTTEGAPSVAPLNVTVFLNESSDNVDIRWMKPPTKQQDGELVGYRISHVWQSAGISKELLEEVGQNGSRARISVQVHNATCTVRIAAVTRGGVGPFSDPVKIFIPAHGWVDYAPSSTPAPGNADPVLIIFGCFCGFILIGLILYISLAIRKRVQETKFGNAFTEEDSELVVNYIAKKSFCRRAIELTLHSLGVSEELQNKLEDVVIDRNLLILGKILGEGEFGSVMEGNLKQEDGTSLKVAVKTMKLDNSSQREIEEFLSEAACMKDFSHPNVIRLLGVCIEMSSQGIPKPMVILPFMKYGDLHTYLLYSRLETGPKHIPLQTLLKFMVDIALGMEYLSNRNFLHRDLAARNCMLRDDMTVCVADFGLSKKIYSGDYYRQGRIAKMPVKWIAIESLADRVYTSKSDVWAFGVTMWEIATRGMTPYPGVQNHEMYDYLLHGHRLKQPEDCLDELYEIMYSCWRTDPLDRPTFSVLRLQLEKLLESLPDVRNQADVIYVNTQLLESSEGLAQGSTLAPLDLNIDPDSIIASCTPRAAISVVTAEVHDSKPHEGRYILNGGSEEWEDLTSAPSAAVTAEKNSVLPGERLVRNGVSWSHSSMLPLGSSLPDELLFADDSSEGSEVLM
In short: (§1)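 Compounds were tested against each kinase with ATP set at its own Km and a labelled tyrosine peptide substrate. Following one hour at room temperature in buffer containing 10 mM MgCl2 and 1 mM DTT, phosphorylated product was detected by Europium antibody TR-FRET after EDTA quench, and IC50 values were calculated.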

TYRO3 = target: T2, TYRO3 (Homo sapiens, UniProt Q06418); test: TR-FRET kinase activity assay, TYRO3; format: biochemical; conditions: ATP at Km, 60 minutes
T2 sequence (Q06418 41-890): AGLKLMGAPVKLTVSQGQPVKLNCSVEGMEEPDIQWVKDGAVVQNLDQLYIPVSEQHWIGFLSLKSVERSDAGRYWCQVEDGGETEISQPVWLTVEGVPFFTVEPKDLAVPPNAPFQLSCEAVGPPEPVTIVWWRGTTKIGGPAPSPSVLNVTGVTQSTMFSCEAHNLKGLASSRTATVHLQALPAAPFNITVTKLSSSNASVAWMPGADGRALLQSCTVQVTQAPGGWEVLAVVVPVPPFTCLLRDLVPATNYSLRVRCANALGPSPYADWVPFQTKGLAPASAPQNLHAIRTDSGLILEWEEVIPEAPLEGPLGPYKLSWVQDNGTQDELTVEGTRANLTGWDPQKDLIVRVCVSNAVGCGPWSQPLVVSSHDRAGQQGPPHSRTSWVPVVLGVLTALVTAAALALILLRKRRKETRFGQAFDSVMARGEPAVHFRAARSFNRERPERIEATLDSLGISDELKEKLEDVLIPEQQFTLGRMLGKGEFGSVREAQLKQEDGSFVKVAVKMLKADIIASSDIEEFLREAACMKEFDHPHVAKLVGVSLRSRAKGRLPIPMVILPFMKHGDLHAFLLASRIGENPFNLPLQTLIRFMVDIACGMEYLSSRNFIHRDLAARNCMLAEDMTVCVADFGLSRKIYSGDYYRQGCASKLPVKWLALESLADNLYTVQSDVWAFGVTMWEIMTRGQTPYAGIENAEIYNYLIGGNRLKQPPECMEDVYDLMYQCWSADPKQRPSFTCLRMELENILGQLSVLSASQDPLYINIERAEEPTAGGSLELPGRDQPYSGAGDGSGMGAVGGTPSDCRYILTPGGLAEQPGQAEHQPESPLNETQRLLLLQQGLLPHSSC
In short: as §1

Structure (SMILES): COC[C@H](C)Nc1ncc2c(-c3ccnc(C(C)(C)O)c3)cc([C@H]3CC[C@H](O)CC3)n2n1 [Compound 619]
- IC50 (MERTK): ≤ 100 nM
- FLT3/Mer ratio (FLT3 IC50/Mer IC50) (MERTK): +++ (“+++” represents a ratio of >100)
- IC50 (TYRO3): ≤ 100 nM

Structure (SMILES): COC[C@H](C)Nc1ncc2c(-c3cnn(C(C)(C)C(=O)N4CCC(C)(O)C4)c3)cc([C@H]3CC[C@H](O)CC3)n2n1 (stereo partly drawn) [Compound 620]
- IC50 (MERTK): ≤ 100 nM
- FLT3/Mer ratio (FLT3 IC50/Mer IC50) (MERTK): +++ (“+++” represents a ratio of >100)
- IC50 (TYRO3): ≤ 100 nM

Structure (SMILES): COC[C@H](C)Nc1ncc2c(-c3cnn(C(C)(C)C(=O)N4CCCC(C)(O)C4)c3)cc([C@H]3CC[C@H](O)CC3)n2n1 (stereo partly drawn) [Compound 621]
- IC50 (MERTK): ≤ 100 nM
- FLT3/Mer ratio (FLT3 IC50/Mer IC50) (MERTK): +++ (“+++” represents a ratio of >100)
- IC50 (TYRO3): ≤ 100 nM

Structure (SMILES): COC[C@H](C)Nc1ncc2c(-c3cnn(C(C)(C)C(=O)N4CC(C)(O)C4)c3)cc([C@H]3CC[C@H](O)CC3)n2n1 [Compound 622]
- IC50 (MERTK): ≤ 100 nM
- FLT3/Mer ratio (FLT3 IC50/Mer IC50) (MERTK): +++ (“+++” represents a ratio of >100)
- IC50 (TYRO3): ≤ 100 nM

Structure (SMILES): COC[C@H](C)Nc1ncc2c(-c3cnn(C(C)(C)c4nc(C)co4)c3)cc([C@H]3CC[C@H](O)CC3)n2n1 [Compound 623]
- IC50 (MERTK): ≤ 100 nM
- FLT3/Mer ratio (FLT3 IC50/Mer IC50) (MERTK): +++ (“+++” represents a ratio of >100)
- IC50 (TYRO3): ≤ 100 nM

Structure (SMILES): COC[C@H](C)Nc1ncc2c(-c3cnn(C4COC4)c3)cc([C@H]3CCc4[nH]ncc4C3)n2n1 [Compound 624]
- IC50 (MERTK): ≤ 100 nM
- FLT3/Mer ratio (FLT3 IC50/Mer IC50) (MERTK): ++ (“++” represents a ratio of between 10 and 100)
- IC50 (TYRO3): ≤ 100 nM

Structure (SMILES): COC[C@H](C)Nc1ncc2c(-c3cnn(C(C)(C)c4nnc(C)s4)c3)cc([C@H]3CC[C@H](O)CC3)n2n1 [Compound 625]
- IC50 (MERTK): ≤ 100 nM
- FLT3/Mer ratio (FLT3 IC50/Mer IC50) (MERTK): +++ (“+++” represents a ratio of >100)
- IC50 (TYRO3): ≤ 100 nM

Structure (SMILES): C[C@@H](CC(F)(F)F)Nc1ncc2c(-c3cnn(C(C)(C)C(=O)N4CCN(C)CC4)c3)cc(C3CCC(O)CC3)n2n1 (stereo partly drawn) [Compound 626]
- IC50 (MERTK): ≤ 100 nM
- FLT3/Mer ratio (FLT3 IC50/Mer IC50) (MERTK): ++ (“++” represents a ratio of between 10 and 100)
- IC50 (TYRO3): ≤ 100 nM

Structure (SMILES): COC[C@H](C)Nc1ncc2c(-c3ccnc(S(C)(=O)=O)c3)cc(C3CCC(O)CC3)n2n1 (stereo partly drawn) [Compound 627]
- IC50 (MERTK): ≤ 100 nM
- FLT3/Mer ratio (FLT3 IC50/Mer IC50) (MERTK): +++ (“+++” represents a ratio of >100)
- IC50 (TYRO3): ≤ 100 nM

Structure (SMILES): COC[C@H](C)Nc1ncc2c(-c3cnn(C(C)(C)c4ncc(C)o4)c3)cc(C3CCC(O)CC3)n2n1 (stereo partly drawn) [Compound 628]
- IC50 (MERTK): ≤ 100 nM
- FLT3/Mer ratio (FLT3 IC50/Mer IC50) (MERTK): +++ (“+++” represents a ratio of >100)
- IC50 (TYRO3): ≤ 100 nM

Structure (SMILES): [2H]C([2H])([2H])OCC(C)Nc1ncc2c(-c3ccnc(N4CCOCC4)c3)cc(C3CCC(O)CC3)n2n1 (stereo not drawn) [Compound 629]
- IC50 (MERTK): ≤ 100 nM
- FLT3/Mer ratio (FLT3 IC50/Mer IC50) (MERTK): +++ (“+++” represents a ratio of >100)
- IC50 (TYRO3): ≤ 100 nM

Structure (SMILES): [2H]C([2H])([2H])OCC(C)Nc1ncc2c(-c3cnn(C4COC4)c3)cc(C3CCC(O)CC3)n2n1 (stereo not drawn) [Compound 630]
- IC50 (MERTK): ≤ 100 nM
- FLT3/Mer ratio (FLT3 IC50/Mer IC50) (MERTK): +++ (“+++” represents a ratio of >100)
- IC50 (TYRO3): ≤ 100 nM

Structure (SMILES): COC[C@H](C)Nc1ncc2c(-c3cnn(C(C)(C)c4nnc(N5CCOCC5)o4)c3)cc(C3CCC(O)CC3)n2n1 (stereo partly drawn) [Compound 631]
- IC50 (MERTK): ≤ 100 nM
- FLT3/Mer ratio (FLT3 IC50/Mer IC50) (MERTK): +++ (“+++” represents a ratio of >100)
- IC50 (TYRO3): ≤ 100 nM

Structure (SMILES): COC[C@H](C)Nc1ncc2c(-c3ccnc(N4CC(C)(O)C4)c3)cc(C3CCC(O)CC3)n2n1 (stereo partly drawn) [Compound 632]
- IC50 (MERTK): ≤ 100 nM
- FLT3/Mer ratio (FLT3 IC50/Mer IC50) (MERTK): +++ (“+++” represents a ratio of >100)
- IC50 (TYRO3): ≤ 100 nM

From US11040981B2, “Pyrrolotriazine compounds and methods of inhibiting TAM kinases” (Syros Pharmaceuticals, Inc., priority 2017, dated 2021)
